Inconclusive results are not listed.
Tested on: LOX IMVI melanoma, caspase 3/7 luminescence, apoptosis
Test: caspase 3/7 activation in LOX IMVI melanoma cells, dose response, mechanism study for HRAS target identification, cell-based, luminescence, multiple timepoints, dry powder (AID 652072)
Details: measured here: caspase 3/7, timepoint 3

CCC(=O)N(c1ccc(OC)c(Cl)c1)C(C(=O)NCCc1ccccc1)c1cccs1 (stereo unspecified)
AC40: > 35 µM

From PubChem BioAssay AID652072 (Broad Institute, 2013)
